Columns and labels:
[1] = system: E. coli BT3/pACYCSP+pHEMF strain; assay: Growth of E. coli BT3/pACYCSP+pHEMF (E. coli hemF) with herbicidal compound; assay type: cell-based, Escherichia coli; details: 18 hours culture, Table 14
Source text: (§1) According to the description of Gibson, L. C. D. et al., Proc. Natl. Acad. Sci. USA, 92; p 1941 (1995), the DNA fragment containing bchH gene prepared in Example 1 was digested with the restriction enzymes NdeI and BglII. The resultant DNA fragment was inserted between NdeI restriction site and BamHI restriction site of expression vector pET11a (manufactured by Stratagene) to obtain plasmid pETBCH (FIG. 1). This plasmid pETBCH was introduced into E. coli BL21(DE3) strain competent cells (manufactured by Stratagene) according to the manual attached to the competent cells to obtain E. coli BL21(DE3)/pETBCH strain. The strain was inoculated into 1.5 ml LB liquid culture medium (1% tryptone, 0.5% yeast extract, 0.5% NaCl) containing 100 μg/ml ampicillin in a tube (14×10 mm), and the tube was covered with aluminum foil (hereinafter referred to as dark conditions), cultured with shaking at 37° C. under light of fluorescent lamp (about 8000 lux). When the absorbance at 600 nm of the liquid culture medium became about 0.6, isopropyl β-D-thiogalactopyranoside (IPTG) was added to the liquid culture medium so that the final concentration was 0.4 mM, and the culture was continued for about additional 20 hours. […] In contrast to this, when E. coli BL21(DE3)/pETBCH strain was cultured according to the same manner (with IPTG) except that the tube was not covered with aluminum foil (hereinafter referred to as light conditions), E. coli grew and turned red as above.
The DNA fragment containing hemF gene amplified by the method described in Example 26 was digested with restriction enzymes FbaI and PstI, and inserted between BamHI restriction site and PstI restriction site of commercially available plasmid […] (manufactured by Takara Shuzo Co., Ltd.) to construct plasmid pHEMF (FIG. 16).
The plasmid pHEMF and pTV118N were introduced into E. coli BT3/pACYCSP strain prepared in Example 3 respectively according to the method described in Hanahan, D. J., Mol. Biol., 166; p 557 (1983). […]
(§2) These E. coli strains were inoculated into YPT medium containing 10 or 1 ppm of the PPO inhibitory-type herbicidal compound represented by Structure 8, 100 μg/ml ampicillin, 15 μg/ml chloramphenicol, 10 μg/ml kanamycin, 10 μg/ml hemin and 50 μg/ml aminolevulinic acid, cultured under dark conditions or light conditions according to the same manner as in Example 2. Then, 18 hours after initiation of culture, the absorbance of liquid culture medium was measured at 600 nm. By taking the absorbance of the medium without the herbicidal compound as I, the relative value of the absorbance of the medium containing the herbicidal compound was calculated.

[2] = system: E. coli BT3/pACYCSP+pTCHLH1 strain; assay: Growth of E. coli BT3/pACYCSP+pTCHLH1 (variant tobacco chelatase subunit) with herbicidal compound; assay type: cell-based, Escherichia coli; details: 18 hours culture, Table 6
Source text: as §1
The plasmid pTCHLH1 and pCR2.1 prepared in Example 7 were introduced into E. coli BT3/pACYCSP strain prepared in Example 3, respectively according to the method described in Hanahan, D. J., Mol. Biol., 166; p 557 (1983). E. coli BT3/pACYCSP+pTCHLH1 strain bearing plasmids pACYCSP and pTCHLH1, and E. coli BT3/pACYCSP+pCR2.1 strain bearing plasmids pACYCSP and pCR2.1 were obtained by culturing the above strains in YPT medium containing 100 μg/ml ampicillin, 15 μg/ml chloramphenicol and 50 μg/ml kanamycin, respectively.
as §2, with “μg/ml chloramphenicol, 50 μg/ml kanamycin,” for “μg/ml chloramphenicol, 10 μg/ml kanamycin,”, “absorbance of the liquid culture” for “absorbance of liquid culture”, “compound as 1, the relative” for “compound as I, the relative”

C#CCOc1cc(N2C(=O)C3=C(CCCC3)C2=O)c(F)cc1Cl [Structure 8]
Relative absorbance ([1]; in the dark, 1 ppm): 0.95
Relative absorbance ([1]; in the dark, 10 ppm): 0.94
Relative absorbance ([1]; in the light, 1 ppm): 1.0
Relative absorbance ([1]; in the light, 10 ppm): 0.48
Relative absorbance ([2]; in the dark, 1 ppm): 0.93
Relative absorbance ([2]; in the dark, 10 ppm): 0.92
Relative absorbance ([2]; in the light, 1 ppm): 0.89
Relative absorbance ([2]; in the light, 10 ppm): 0.69
